Values quoted from earlier work as cited in patent US11039992B2, “Stable redox compositions and methods of use” (Reoxcyn, LLC, priority 2017, dated 2021).

Conditions: pH-neutral aqueous solution (pH around 7.0) at room temperature

In the case of `O=[O+][O-]` [ozone], the half-life is given as “about 20 minutes”.
